Earlier results in patent US8236927B2, “Stabilizer molecule-depleted albumin solution” (Albutec GmbH, priority 2005, dated 2012).

Biological target: T1, binding site II (diazepam binding site) of the albumin (Homo sapiens, UniProt P02768)
T1 construct: commercial albumin, stabilized with 5.2 mmole of octanoate and 5.2 mmol of N-acetyl tryptophanate per mmol albumin; purchased
Conditions: N-acetyl tryptophan added stepwise up to a molar ratio of 1:1; reduced from 100%

T1 sequence (P02768 25-609): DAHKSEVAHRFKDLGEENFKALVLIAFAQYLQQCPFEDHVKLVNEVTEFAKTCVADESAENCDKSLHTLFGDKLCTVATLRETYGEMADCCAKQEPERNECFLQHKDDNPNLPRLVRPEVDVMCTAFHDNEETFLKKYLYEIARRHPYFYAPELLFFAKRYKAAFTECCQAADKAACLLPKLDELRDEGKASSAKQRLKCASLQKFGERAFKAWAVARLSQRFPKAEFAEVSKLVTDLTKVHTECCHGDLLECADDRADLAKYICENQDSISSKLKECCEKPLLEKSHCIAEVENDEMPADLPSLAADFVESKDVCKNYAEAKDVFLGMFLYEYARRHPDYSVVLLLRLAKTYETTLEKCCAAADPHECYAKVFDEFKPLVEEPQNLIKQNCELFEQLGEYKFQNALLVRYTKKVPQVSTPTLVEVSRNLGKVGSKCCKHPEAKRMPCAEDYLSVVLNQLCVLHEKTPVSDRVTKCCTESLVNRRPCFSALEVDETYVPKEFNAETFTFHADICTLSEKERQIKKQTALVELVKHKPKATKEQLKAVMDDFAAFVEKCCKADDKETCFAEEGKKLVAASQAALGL

binding capacity for dansylsarcosin of ligand-free albumin: about 60%
SMILES: CC(=O)N[C@@H](Cc1c[nH]c2ccccc12)C(=O)O [N-acetyl tryptophan]
